In ChEMBL document CHEMBL4422615, “Novel non-xanthine antagonist of the A2B adenosine receptor: From HTS hit to lead structure” (Eur J Med Chem, 2019):
pIC50: −log10 of the molar value.

What was measured:
[1] = Intrinsic clearance in rat hepatocytes by MS/MS analysis; format: ADME, cell-based, Hepatocyte
Cytochrome P450 2D6 = Cytochrome P450 2D6 (Homo sapiens, UniProt P10635); experiment: Inhibition of CYP2D6 in human liver microsomes using dextromethorphan as substrate after 15 mins in presence of NADPH by LC-MS/MS analysis; format: ADME
PXR = target: T1, PXR (Homo sapiens, UniProt O75469); experiment: Activation of PXR in human HepG2 cells assessed as induction of CYP3A4 expression at 2 x 10^-9 to 50 x 10^-6 mol/L by luciferase reporter gene assay relative to control; format: ADME, cell-based
T1 sequence (O75469 whole entry): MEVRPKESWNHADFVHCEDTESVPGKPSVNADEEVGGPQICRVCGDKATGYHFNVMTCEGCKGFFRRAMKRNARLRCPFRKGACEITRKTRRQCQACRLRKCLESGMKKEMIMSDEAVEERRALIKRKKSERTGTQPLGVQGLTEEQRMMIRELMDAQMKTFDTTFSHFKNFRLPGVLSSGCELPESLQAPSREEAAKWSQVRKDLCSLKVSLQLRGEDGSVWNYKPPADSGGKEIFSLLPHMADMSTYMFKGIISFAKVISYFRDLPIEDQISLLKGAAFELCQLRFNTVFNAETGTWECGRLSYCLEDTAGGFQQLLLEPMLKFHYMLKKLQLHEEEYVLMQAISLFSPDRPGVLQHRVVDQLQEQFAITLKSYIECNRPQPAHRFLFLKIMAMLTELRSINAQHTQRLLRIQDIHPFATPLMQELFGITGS

[2] = Volume of distribution at steady state in mouse at 0.3 mg/kg, iv administered as bolus dose by HPLC-MS/MS analysis; format: ADME, organism-based; details: in vivo, read-out: Vdss
[3] = Dose normalized AUC in dog at 0.3 mg/kg, iv administered as infusion for 15 mins by HPLC-MS/MS analysis; format: ADME, organism-based, Canis lupus familiaris; details: in vivo, 0.25 h
[4] = MRT in dog at 1 mg/kg, po for 15 mins by HPLC-MS/MS analysis; format: ADME, organism-based, Canis lupus familiaris; details: in vivo
Adenosine receptor A2b = target: T2, Adenosine receptor A2b (Mus musculus, UniProt Q60614); experiment: Antagonist activity at recombinant mouse A2B adenosine receptor expressed in CHO cells after 3 to 4 hrs by luciferase reporter gene assay; format: cell-based
T2 sequence (Q60614 whole entry): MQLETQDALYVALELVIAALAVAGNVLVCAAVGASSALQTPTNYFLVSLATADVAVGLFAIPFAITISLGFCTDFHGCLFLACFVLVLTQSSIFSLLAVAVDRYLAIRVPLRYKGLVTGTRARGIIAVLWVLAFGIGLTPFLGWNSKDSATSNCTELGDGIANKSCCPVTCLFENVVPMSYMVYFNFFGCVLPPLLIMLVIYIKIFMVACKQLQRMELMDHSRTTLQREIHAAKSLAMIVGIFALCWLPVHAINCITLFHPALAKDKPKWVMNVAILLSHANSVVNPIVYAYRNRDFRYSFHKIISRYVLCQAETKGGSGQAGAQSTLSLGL

[5] = Toxicity in FITC-induced C57BL/6J mouse pulmonary fibrosis model assessed as change in body weight administered as bid dose via gavage pretreated for 45 mins before FITC addition until 72 hrs after FITC application; details: in vivo, po

Sequence of Cytochrome P450 2D6 (P10635 whole entry): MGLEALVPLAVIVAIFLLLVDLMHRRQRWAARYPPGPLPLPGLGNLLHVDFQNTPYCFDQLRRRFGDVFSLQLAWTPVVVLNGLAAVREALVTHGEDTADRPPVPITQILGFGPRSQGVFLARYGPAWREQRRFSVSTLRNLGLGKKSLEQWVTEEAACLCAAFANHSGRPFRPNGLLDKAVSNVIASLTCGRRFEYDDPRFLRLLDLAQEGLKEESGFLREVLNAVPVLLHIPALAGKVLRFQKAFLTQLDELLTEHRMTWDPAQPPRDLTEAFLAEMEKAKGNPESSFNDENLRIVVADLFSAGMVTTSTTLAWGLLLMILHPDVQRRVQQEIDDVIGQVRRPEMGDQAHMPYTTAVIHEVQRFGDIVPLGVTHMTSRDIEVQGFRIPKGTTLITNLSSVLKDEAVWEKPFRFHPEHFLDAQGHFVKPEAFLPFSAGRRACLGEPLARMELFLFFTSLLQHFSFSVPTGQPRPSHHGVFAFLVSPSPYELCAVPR

- CLhep predicted [1]: 23.3 mL/min/kg
- pIC50 (Cytochrome P450 2D6): < 4.70
- Emax (PXR): 16%
- Vd [2]: 0.4 L/kg
- AUC/dose [3]: 2.5 kg·h/L
- MRT [4]: 4.4 h
- pIC50 (Adenosine receptor A2b): 6.40
SMILES: CCn1c(=O)c2c(C)c(C(=O)N3CCC(O)CC3)sc2n(CCC(F)(F)F)c1=O
- Activity [5]: Non-Toxic
